Assay results from the supplement of paper PMC10307832.

Experiments:
Test in all cases: relative viability (nuclei count vs DMSO), 5 days (fraction); higher = more cells survive
ABC-1 = tested on: ABC-1
Summary of the method: (§1)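 Lung cancer cell lines were pin-tool dosed in 1536-well plates on the day after seeding, with either a lone drug or a fixed anchor-drug dose plus five library-drug doses (not always all listed) in √10 steps. Nuclei were counted on 4× images after 5 days. Relative viability is the ratio of treated-well to vehicle-well nuclei counts, with each value a median of duplicate plates.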

COR-L23 = tested on: COR-L23
Summary of the method: as §1

ChaGo-K-1 = tested on: ChaGo-K-1
Summary of the method: as §1

NCI-H1437 = tested on: NCI-H1437
Summary of the method: as §1

NCI-H1623 = tested on: NCI-H1623
Summary of the method: as §1

NCI-H1648 = tested on: NCI-H1648
Summary of the method: as §1

NCI-H1651 = tested on: NCI-H1651
Summary of the method: as §1

SK-MES-1 = tested on: SK-MES-1
Summary of the method: as §1

SW 1573 = tested on: SW 1573
Summary of the method: as §1

`Cc1sc2c(c1C)C(c1ccc(Cl)cc1)=N[C@@H](CC(=O)OC(C)(C)C)c1nnc(C)n1-2` [JQ1] + COc1cccc2cc(-c3nc([C@H]4CC[C@H](C(=O)O)CC4)n4ncnc(N)c34)[nH]c12 [OSI-027] (partner 0.5 µM) was tested, and the relative viability (ABC-1; first compound 0.04 µM) was 0.452, the relative viability (ABC-1; first compound 0.1265 µM) was 0.352 and the relative viability (ABC-1; first compound 0.4 µM) was 0.322. For the same compound, the relative viability (ABC-1; first compound 1.265 µM) was 0.187, the relative viability (ABC-1; first compound 4 µM) was 0.212 and the relative viability (COR-L23; first compound 0.04 µM) was 0.861. For the same compound, the relative viability (COR-L23; first compound 0.1265 µM) was 0.662, the relative viability (COR-L23; first compound 0.4 µM) was 0.699 and the relative viability (COR-L23; first compound 1.265 µM) was 0.293. For the same compound, the relative viability (COR-L23; first compound 4 µM) was 0.46, the relative viability (ChaGo-K-1; first compound 0.04 µM) was 0.564 and the relative viability (ChaGo-K-1; first compound 0.1265 µM) was 0.519. It also gave a relative viability (ChaGo-K-1; first compound 0.4 µM) of 0.472, a relative viability (ChaGo-K-1; first compound 1.265 µM) of 0.345 and a relative viability (ChaGo-K-1; first compound 4 µM) of 0.28. The relative viability (NCI-H1437; first compound 0.04 µM) was 0.871, the relative viability (NCI-H1437; first compound 0.1265 µM) was 0.809 and the relative viability (NCI-H1437; first compound 0.4 µM) was 0.599. For the same compound, the relative viability (NCI-H1437; first compound 1.265 µM) was 0.36, the relative viability (NCI-H1437; first compound 4 µM) was 0.319 and the relative viability (NCI-H1623; first compound 0.04 µM) was 0.446. For the same compound, the relative viability (NCI-H1623; first compound 0.1265 µM) was 0.433, the relative viability (NCI-H1623; first compound 0.4 µM) was 0.363 and the relative viability (NCI-H1623; first compound 1.265 µM) was 0.328. For the same compound, the relative viability (NCI-H1623; first compound 4 µM) was 0.291, the relative viability (NCI-H1648; first compound 0.04 µM) was 0.285 and the relative viability (NCI-H1648; first compound 0.1265 µM) was 0.287. For the same compound, the relative viability (NCI-H1648; first compound 0.4 µM) was 0.304, the relative viability (NCI-H1648; first compound 1.265 µM) was 0.206 and the relative viability (NCI-H1648; first compound 4 µM) was 0.274. For the same compound, the relative viability (NCI-H1651; first compound 0.04 µM) was 0.624, the relative viability (NCI-H1651; first compound 0.1265 µM) was 0.638 and the relative viability (NCI-H1651; first compound 0.4 µM) was 0.591. For the same compound, the relative viability (NCI-H1651; first compound 1.265 µM) was 0.391, the relative viability (NCI-H1651; first compound 4 µM) was 0.407 and the relative viability (SK-MES-1; first compound 0.04 µM) was 0.614. For the same compound, the relative viability (SK-MES-1; first compound 0.1265 µM) was 0.497, the relative viability (SK-MES-1; first compound 0.4 µM) was 0.379 and the relative viability (SK-MES-1; first compound 1.265 µM) was 0.157. The relative viability (SK-MES-1; first compound 4 µM) was 0.158, the relative viability (SW 1573; first compound 0.04 µM) was 0.511 and the relative viability (SW 1573; first compound 0.1265 µM) was 0.475. The relative viability (SW 1573; first compound 0.4 µM) was 0.371, the relative viability (SW 1573; first compound 1.265 µM) was 0.229 and the relative viability (SW 1573; first compound 4 µM) was 0.233.

In the case of `COc1cc2nccc(Oc3ccc(NC(=O)Nc4cc(C)on4)c(Cl)c3)c2cc1OC` [Tivozanib] + Cc1cc(Nc2cc(N3CCN(C)CC3)nc(Sc3ccc(NC(=O)C4CC4)cc3)n2)n[nH]1 [Tozasertib] (partner 0.1 µM), the relative viability (ABC-1; first compound 0.005 µM) is reported as 0.167, the relative viability (ABC-1; first compound 0.01581 µM) is reported as 0.185 and the relative viability (ABC-1; first compound 0.05 µM) is reported as 0.188. The relative viability (ABC-1; first compound 0.1581 µM) was 0.159, the relative viability (ABC-1; first compound 0.5 µM) was 0.168 and the relative viability (COR-L23; first compound 0.005 µM) was 0.172. It also gave a relative viability (COR-L23; first compound 0.01581 µM) of 0.218, a relative viability (COR-L23; first compound 0.05 µM) of 0.363 and a relative viability (COR-L23; first compound 0.1581 µM) of 0.268. For the same compound, the relative viability (COR-L23; first compound 0.5 µM) was 0.228, the relative viability (ChaGo-K-1; first compound 0.005 µM) was 0.226 and the relative viability (ChaGo-K-1; first compound 0.01581 µM) was 0.247. For the same compound, the relative viability (ChaGo-K-1; first compound 0.05 µM) was 0.216, the relative viability (ChaGo-K-1; first compound 0.1581 µM) was 0.256 and the relative viability (ChaGo-K-1; first compound 0.5 µM) was 0.186. The relative viability (NCI-H1437; first compound 0.005 µM) was 0.405, the relative viability (NCI-H1437; first compound 0.01581 µM) was 0.343 and the relative viability (NCI-H1437; first compound 0.05 µM) was 0.53. It also gave a relative viability (NCI-H1437; first compound 0.1581 µM) of 0.44, a relative viability (NCI-H1437; first compound 0.5 µM) of 0.436 and a relative viability (NCI-H1623; first compound 0.005 µM) of 0.42. It also gave a relative viability (NCI-H1623; first compound 0.01581 µM) of 0.467, a relative viability (NCI-H1623; first compound 0.05 µM) of 0.47 and a relative viability (NCI-H1623; first compound 0.5 µM) of 0.424. For the same compound, the relative viability (NCI-H1648; first compound 0.005 µM) was 0.482, the relative viability (NCI-H1648; first compound 0.01581 µM) was 0.534 and the relative viability (NCI-H1648; first compound 0.05 µM) was 0.436. For the same compound, the relative viability (NCI-H1648; first compound 0.1581 µM) was 0.536, the relative viability (NCI-H1648; first compound 0.5 µM) was 0.545 and the relative viability (NCI-H1651; first compound 0.005 µM) was 0.698. The relative viability (NCI-H1651; first compound 0.01581 µM) was 0.768, the relative viability (NCI-H1651; first compound 0.05 µM) was 0.758 and the relative viability (NCI-H1651; first compound 0.1581 µM) was 0.764. The relative viability (NCI-H1651; first compound 0.5 µM) was 0.565, the relative viability (SK-MES-1; first compound 0.005 µM) was 0.801 and the relative viability (SK-MES-1; first compound 0.01581 µM) was 0.888. The relative viability (SK-MES-1; first compound 0.05 µM) was 0.98, the relative viability (SK-MES-1; first compound 0.1581 µM) was 0.901 and the relative viability (SK-MES-1; first compound 0.5 µM) was 0.789. It also gave a relative viability (SW 1573; first compound 0.005 µM) of 0.165, a relative viability (SW 1573; first compound 0.01581 µM) of 0.17 and a relative viability (SW 1573; first compound 0.05 µM) of 0.198. For the same compound, the relative viability (SW 1573; first compound 0.1581 µM) was 0.205 and the relative viability (SW 1573; first compound 0.5 µM) was 0.38.
